Reference: PubChem BioAssay (NCI)
Several values for one entry are separate records, joined by “and”; a condition that tells them apart may be missing. Equal entries are not always repeated.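 Five concentrations, 48 hours, 96-well plates. GI50: concentration for 50% inhibition of growth. TGI denotes the concentration required for complete inhibition of growth.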

How the values were obtained:
Assay in all cases: NCI anticancer screen, dose series, 48 h
ACHN renal = test system: ACHN renal
CAKI-1 renal = test system: CAKI-1 renal
MALME-3M melanoma = test system: MALME-3M melanoma
NCI-H226 lung = test system: NCI-H226 lung
OVCAR-8 ovarian = test system: OVCAR-8 ovarian
SK-MEL-5 melanoma = test system: SK-MEL-5 melanoma
TK-10 renal = test system: TK-10 renal
UACC-257 melanoma = test system: UACC-257 melanoma

| SMILES | TGI (ACHN renal) | TGI (CAKI-1 renal) [µM] | TGI (MALME-3M melanoma) | TGI (NCI-H226 lung) | TGI (OVCAR-8 ovarian) | TGI (SK-MEL-5 melanoma) | TGI (TK-10 renal) | TGI (UACC-257 melanoma) | GI50 (ACHN renal) | GI50 (CAKI-1 renal) [µM] | GI50 (MALME-3M melanoma) | GI50 (NCI-H226 lung) | GI50 (OVCAR-8 ovarian) | GI50 (SK-MEL-5 melanoma) | GI50 (UACC-257 melanoma) | GI50 (TK-10 renal) [µM] |
| --- | --- | --- | --- | --- | --- | --- | --- | --- | --- | --- | --- | --- | --- | --- | --- | --- |
| O=S(=O)(F)Cc1ccccc1 | > 100 µM | > 100 | 70 µM | > 100 µM | > 100 µM | > 100 µM | > 100 µM | > 100 µM | – | – | – | – | – | – | – | – |
| COc1ccc(CCN2CCCn3c2nc2ccccc2c3=O)cc1 | > 100 µM | > 100 | > 100 µM | > 100 µM | > 100 µM | 4.44 µM | > 100 µM | > 100 µM | 0.978 µM | 0.252 | 0.0538 µM | 6.43 µM | 0.423 µM | 0.0433 µM | > 100 µM | – |
| O=C(CSSCC(=O)c1ccc(Cl)cc1)c1ccc(Cl)cc1 | 24.1 µM | 28.6 | 17 µM | 30.7 µM | 23.2 µM | 10.5 µM | 13.8 µM | 34.4 µM | 8.75 µM | 4.99 | 3.19 µM | 11.7 µM | 5.06 µM | 3.32 µM | 5.18 µM | 3.83 |
| COc1ccc(-n2cc(-c3cc(OC)c(OC)c(OC)c3)nc2SCc2cccc(C#N)c2)cc1OC | > 100 µM | > 100 | > 100 µM | > 100 µM | – | > 100 µM | > 100 µM | – | > 100 µM | > 100 | > 100 µM | > 100 µM | – | 71.8 µM | – | > 100 |
| COc1ccc(C2=C(c3ccc(OC)cc3)C(=O)OC2)cc1 | 23.4 µM | 14.8 | 35.4 µM | 31.4 µM | > 52.3 µM | 5.9 µM | 8.01 µM | > 100 µM | 2.72 µM | 0.489 | 3.91 µM | 3.2 µM | 1.35 µM | 0.472 µM | 40.1 µM | 1.1 |
| O=[N+]([O-])c1ccc(Sc2cccc[n+]2[O-])c2nonc12 | 14.2 µM | 15.4 | 5.34 µM | > 65.3 µM | > 67.6 µM | 18.7 µM | 20.8 µM | 24.7 µM | 3.67 µM | 4.85 | 2.09 µM | 21 µM | 9.93 µM | 5.72 µM | 11.5 µM | 8.41 |
| CCc1nc(N)nc(N)c1C#CC(C)c1ccc(-c2ccncc2)cc1Cl (stereo not given) | 4.57 µM and 13.7 µM | 5.07 | 1.93 µM and 13.1 µM | 6.56 µM and 28.3 µM | 7.66 µM and 37.7 µM | 0.781 µM and 1.98 µM | 4.46 µM and 6.39 µM | 2.34 µM and 12.1 µM | 0.00775 µM and 0.0304 µM | 0.0259 | 0.0378 µM and 0.307 µM | 0.264 µM and 0.86 µM | < 0.005 µM and 0.0299 µM | 0.00753 µM and 0.0461 µM | 0.0286 µM and 0.0348 µM | – |
| C[C@H]1C[C@@H](n2c(Nc3ccc(OC(F)(F)F)cc3)nc3cc(CCC(=O)O)ccc32)CC(C)(C)C1 | 27.1 µM | 28.8 | 37.3 µM | 42.4 µM | 35.1 µM | 17.9 µM | 46.9 µM | 39.4 µM | 13.1 µM | 15.4 | 16.2 µM | 17.8 µM | 13.2 µM | 5.38 µM | 16.6 µM | 20.6 |
| N#CC1=C(N)NC(=O)C(C#N)C12Nc1ccccc1S2 (stereo not given) | > 100 µM | > 100 | > 100 µM | > 100 µM | > 100 µM | > 100 µM | > 100 µM | > 100 µM | > 100 µM | > 100 | 64 µM | 41.3 µM | 91.3 µM | > 100 µM | 39.9 µM | 38.9 |
| O=C(Nc1cc(Cl)c(I)c(Cl)c1)C(F)(F)F | > 100 µM | 56.5 | – | 66.8 µM | 56.8 µM | 36.1 µM | – | > 100 µM | – | – | – | – | – | – | – | – |
| COc1ccc(/C=C\c2cc(OC)c(OC)c(OC)c2)cc1NC(=O)/C=C/c1ccc(OC)c(OC)c1 | > 100 µM | > 100 | > 100 µM | > 100 µM | > 100 µM | > 100 µM | > 100 µM | > 100 µM | 5.25 µM | 3.55 | > 100 µM | 4.03 µM | 5.1 µM | 2.89 µM | > 100 µM | > 100 |
| COc1ccc([N+](=O)[O-])c2c(NCCCN(C)C)c(C)c(C)nc12 | > 100 µM | > 100 | > 100 µM | – | > 100 µM | > 100 µM | > 100 µM | > 100 µM | – | – | – | – | – | – | – | – |
| O=C(O)CCCN1C(=O)/C(=C/C(Cl)=C/c2ccccc2)SC1=S | 4.4 µM | 3.76 | 5.24 µM | 18.4 µM | 13.8 µM | 3.16 µM | 9.6 µM | 6.8 µM | 1.2 µM | 1.66 | 2.09 µM | 2.98 µM | 1.48 µM | 1.72 µM | 1.75 µM | 3.73 |
| CN(c1cccc(C(=O)O)c1)c1cc(O/N=[N+](\[O-])N(C)C)c([N+](=O)[O-])cc1[N+](=O)[O-] | > 100 µM | > 100 | – | > 100 µM | > 100 µM | > 100 µM | > 100 µM | > 100 µM | > 100 µM | > 100 | – | > 100 µM | > 100 µM | > 100 µM | > 100 µM | > 100 |
| O=[N+]([O-])c1ccccc1/C=N\NC(=S)N/N=C/c1ccccc1[N+](=O)[O-] | > 100 µM | > 100 | – | > 100 µM | > 100 µM | > 100 µM | > 100 µM | > 100 µM | 7.53 µM | 3.46 | – | 75.4 µM | 11.9 µM | 4.21 µM | 10.3 µM | 13.7 |
| CNc1c2ccccc2nc2occ(Cl)c12 | 70.5 µM | 33.2 | 59.5 µM | > 100 µM | > 100 µM | 34.8 µM | 56.7 µM | – | 24 µM | 12 | 25.1 µM | 32.9 µM | 37.7 µM | 16.6 µM | – | 17.9 |
| NCC(=O)Nc1ccc(Cl)cc1C(=O)c1ccc[nH]1 | > 100 µM | > 100 | > 100 µM | > 100 µM | > 100 µM | > 100 µM | > 100 µM | > 100 µM | – | – | – | – | – | – | – | – |
